“Also recorded” adds a separate entry of the source. Marks after values point to notes of the source that are not given here.
Assays:
[1] = system: PI3Kδ; design: method as in PMID 21378270, PMID 21803855, PMID 20959606, PMID 31506873; conditions: cited from earlier work
[2] = Phase 1 study: plasma pharmacokinetics, non-compartmental analysis; assay type: in vivo, human; conditions: for pre-dose concentration, mean ± SD: 60 mg daily; for median tmax: after single and multiple doses
Source text: The primary endpoint was the safety [number of patients with treatment-emergent adverse events (TEAEs), based on Common Terminology Criteria for Adverse Events version 5.0] and tolerability (including laboratory values, vital signs, and electrocardiogram performance) of zandelisib in Japanese patients. Hepatobiliary disorder, aspartate/alanine (AST/ALT) increased, diarrhea/colitis, organizing pneumonia, stomatitis, or rash were defined as irAEs in this manuscript. Secondary endpoints included PK (plasma concentrations and PK parameters) and the efficacy of zandelisib. Blood samples for PK evaluation were collected at pre-dose, 1.5, 3, 5, 8, 10, 12 (optional), and 24 h post-dose on Cycle 1 day 1 and Cycle 2 day 1, and at pre-dose on Cycle 1 days 8, 15, and 22. The PK parameters for Cycle 1 day 1 and Cycle 2 day 1 were calculated for each patient by non-compartmental analysis. PK parameters included maximum plasma drug concentration (Cmax), area under the plasma concentration–time curve (AUC) from time zero to the last measurable point (AUC0–t), the AUC from time zero to infinity (AUC0-inf), and terminal half-life (t1/2).

For `CN1CCC(c2ccccc2CC(C)(C)Nc2nc(N3CCOCC3)nc(-n3c(C(F)F)nc4ccccc43)n2)CC1` [zandelisib], the target binding [1] is given as > 5 h, the “AUC0–inf, mean ± SD” value ([2]; 45 mg, Cycle 1 day 1, n = 2) is given as 479 ± 112^c ng h/mL and the “t1/2, mean ± SD” value ([2]; 45 mg, Cycle 1 day 1, n = 2) is given as 12.5 ± 0.8^c h. For the same compound, the “AUC0–t (24 h), mean ± SD” value ([2]; 45 mg, Cycle 1 day 1, n = 3) was 304 ± 90 ng·h/mL, the “Cmax, mean ± SD” value ([2]; 45 mg, Cycle 1 day 1, n = 3) was 27.5 ± 11.0 ng/mL and the “tmax, median (min–max)” value ([2]; 45 mg, Cycle 1 day 1, n = 3) was 3.00 (2.88–9.53) h. The “t1/2, mean ± SD” value ([2]; 45 mg, Cycle 2 day 1, n = 2) was 32.5 ± 10.3^c h, the “AUC0–t (24 h), mean ± SD” value ([2]; 45 mg, Cycle 2 day 1, n = 3) was 601 ± 171 ng·h/mL and the “Cmax, mean ± SD” value ([2]; 45 mg, Cycle 2 day 1, n = 3) was 46.4 ± 6.2 ng/mL. For the same compound, the “tmax, median (min–max)” value ([2]; 45 mg, Cycle 2 day 1, n = 3) was 3.08 (2.95–7.98) h, the “pre-dose concentration, mean ± SD” value ([2]; Cycle 1 Day 8) was 25.2 ± 8.2 ng/mL and the “pre-dose concentration, mean ± SD” value ([2]; Cycle 1 Day 15) was 26.1 ± 9.6 ng/mL. The “pre-dose concentration, mean ± SD” value ([2]; Cycle 1 Day 22) was 28.2 ± 9.5 ng/mL, the “pre-dose concentration, mean ± SD” value ([2]; Cycle 2 Day 1) was 26.2 ± 13.1 ng/mL and the “AUC0–inf, mean ± SD” value ([2]; 60 mg, Cycle 1 day 1, n = 6) was 731 ± 331 ng·h/mL. For the same compound, the “AUC0–t (24 h), mean ± SD” value ([2]; 60 mg, Cycle 1 day 1, n = 6) was 435 ± 161 ng·h/mL, the “Cmax, mean ± SD” value ([2]; 60 mg, Cycle 1 day 1, n = 6) was 36.6 ± 13.2 ng/mL and the “t1/2, mean ± SD” value ([2]; 60 mg, Cycle 1 day 1, n = 6) was 16.4 ± 3.9 h. For the same compound, the “tmax, median (min–max)” value ([2]; 60 mg, Cycle 1 day 1, n = 6) was 3.94 (3.00–7.83) h, the “t1/2, mean ± SD” value ([2]; 60 mg, Cycle 2 day 1, n = 5) was 23.5 ± 10.9^d h and the “AUC0–t (24 h), mean ± SD” value ([2]; 60 mg, Cycle 2 day 1, n = 6) was 974 ± 339 ng·h/mL. The “Cmax, mean ± SD” value ([2]; 60 mg, Cycle 2 day 1, n = 6) was 62.8 ± 19.4 ng/mL, the “tmax, median (min–max)” value ([2]; 60 mg, Cycle 2 day 1, n = 6) was 4.96 (2.83–8.00) h and the “dose proportionality of exposure (Cmax and AUC)” value ([2]; 45 and 60 mg) was “generally dose proportional up to 60 mg/day”. For the same compound, the “exposures (Cmax and AUC) on Cycle 2 Day 1 versus Cycle 1 Day 1” value ([2]; 45 and 60 mg) was 1.5–2 fold, the median tmax ([2]; 45 mg) was 3 h and the median tmax ([2]; 60 mg) was ~ 4.96 h. The “time to PK steady state” value ([2]; daily dosing) was “PK reached steady state by Day 8; also recorded: reached steady state following 7 days of dosing”.

From publication PMC9668928, “Zandelisib (ME-401) in Japanese patients with relapsed or refractory indolent non-Hodgkin’s lymphoma: an open-label, multicenter, dose-escalation phase 1 study” (International Journal of Hematology, 2022)
